{"source": "patent US9308210B2", "about": "“Method for modulating canonical Wnt pathway using folate and inositol” (University of South Florida, priority 2009, dated 2016)", "key": {"Hex and Isl-1 expression": {"test_system": "Hex and Isl-1 expression", "assay": "In situ hybridization of Hex and Isl-1 in avian embryos after EtOH exposure with or without FA", "type": "in vivo, avian (chick)", "settings": "30% EtOH; HH stage 4; 8 hour incubation"}, "C57BL/6 mouse embryos [1]": {"test_system": "C57BL/6 mouse embryos", "assay": "Morphometric parameters and resorptions of E15.5 mouse embryos with ethanol exposure and FA diet", "type": "in vivo", "source_text": "The C57Bl/6 mouse strain (Jackson Laboratories) was used."}, "C57BL/6 mouse embryos [2]": {"test_system": "C57BL/6 mouse embryos", "settings": "in vivo"}, "chick embryos": {"test_system": "chick embryos", "assay": "Early embryonic chick culture: heart development (MF20) after HCy, Li or Wnt3A exposure, FA/inositol rescue", "type": "in vivo, chick (Gallus gallus)", "description": "Pathogen-free White Leghorn chick (Gallus gallus; Charles River, Mass.) and quail (Coturnix coturnix japonica; Strickland Farms, Ga.) embryos were used to analyze the effects of HCy on early embryogenesis. The early processes of heart development are well conserved among vertebrates and the avian model allows for more precise timing of exposure in early embryos. The incubation methodology using agarose-albumin has been described previously (Darnell and Schoenwolf, 2000). Briefly, the experimental paradigm involved exposing specific early stages of chick embryos, at HH stages 4 to 7 (Hamburger and Hamilton, 1951), to different concentrations of HCy (L-homocysteine thiolactone hydrochloride, Sigma) made up in physiological saline. Final concentrations of HCy included 30 μM, 50 μM, 75 μM and 100 μM. The minimal teratogenic dose was determined empirically to be 50 μM. This fit within the concentration range of 30 μM to 300 μM used by others that induced heart defects at later stages of development (Boot et al., 2004). Control embryos were incubated using the vehicle, physiological saline, in the agarose-albumin medium. Control and experimental cultures were incubated on the agarose-albumin plates for either 8 or 24 hours.\nCarrier-free, recombinant mouse Wnt3A was purchased from R&D Systems (Minneapolis, Minn.). Wnt3A concentrations were empirically tested to find those that would induce cardiac defects but maintain embryonic viability. Wnt3A was tested at concentrations of 2 ng, 10 ng, 20 ng, 50 ng and 100 ng per ml. Concentrations of 2 ng/ml and 10 ng/ml were both effective in inducing cardiac defects. Both Wnt3A concentrations were used in the FA rescue experiments, as described. For the FA rescue experiments, folate (folic acid, Sigma-Aldrich) was added at a concentration of 2 μg, 5 μg or 10 μg per ml. […] For the experiments using inositol (myo-inositol, Sigma) supplementation, a concentration of 50 mg/ml was used.\nThe main embryonic defects related to the timing of embryonic exposure; the regions that were primarily affected related to an anterior-to posterior (AP) wave of development along this embryonic axis. The exposure effects ranged from early effects (e.g. no cardiac tissue, heart development occurring anterior to neural tissue, cardiabifida) to later effects, such as wide hearts and left looping (Table 1). The cardiac phenotypes observed with early HCy exposure were similar, although not identical, to those obtained from previous studies of Li exposure on avian heart development (Manisastry et al., 2006). The Wnt/β-catenin modulated genes Hex and Isl1 in the chick embryo also were similarly repressed with HCy, as with Li in the chick cardiogenic region. […] Investigation of regulatory gene activity in chick embryos indicates Li, HCy and Wnt3A suppress Wnt-modulated genes Hex and Islet-1 in the heart fields.\nTo define the effective dose of Wnt3A needed to induce cardiac dysmorphogenesis, Wnt3A was tested at concentrations of 2 ng, 10 ng, 20 ng, 50 ng, and 100 ng per ml. The minimal effective doses of Wnt3A that induced cardiac and neural anomalies were 2 ng/ml and 10 ng/ml, respectively. Using these concentrations, the inventors analyzed whether FA supplementation of media at 10^3-fold higher concentrations, that is 2 μg/ml or 10 μg/ml, would provide protection against the augmentation of canonical Wnt3A signaling."}, "HTR-8/SVneo cells": {"test_system": "HTR-8/SVneo cells", "assay": "In vitro wound assay of human trophoblast cell migration", "type": "cell-based", "settings": "HCy exposure experiments; scrape wound", "source_text": "In previous studies by the inventors analyzing the effects of lithium and the metabolite homocysteine (HCy) on early heart development, the results were similar. Both factors inhibited Wnt/β-catenin-mediated gene expression during induction stages of cardiogenesis. […] Folate protects the embryo from these adverse effects (Han et al., 2009). It was also noted that normal placental development was adversely affected by Li and HCy. A human trophoblast cell line, HTR-8/SVneo cells, was used to determine whether Li or HCy affect the migration of these cells in vitro and whether FA or FA/myo-inositol would protect the cells from adverse effects of the two cardiac teratogens. HCy exposure experiments were conducted. […] The wound edges are depicted by a white line in B. In panel A, it can be seen that the wound area is smaller. Administration of a combination of FA/myo-inositol, FA alone or myo-inositol alone, enhanced the expression of NMHC-IIB and FN to facilitate cell migration."}, "[3]": {"test_system": "Hex and Islet-1 (Isl1) gene expression", "assay": "In situ hybridization of Hex and Isl1 in avian heart fields after Li, HCy or Wnt3A with or without FA", "type": "in vivo, chick", "settings": "8 hours of exposure; HH stages 3+/4", "description": "In situ hybridizations on control and experimentally manipulated chick embryos were carried out using digoxigenin-labeled riboprobes with alkaline phosphatase detection (Linask et al., 2001). Images of whole-mounted chick embryos were taken with a Nikon DS-L2 camera unit. Probes for chick Hex were provided by Parker Antin, University of Arizona and probes for chick Islet-1 (Isl1) were provided by Thomas Jessell, Columbia University, NY.\nChick embryos (HH stages 3+/4) were incubated on agarose albumin supplemented with HCy (50 μM). Instead of giving a single injection in ovo, embryos were exposed to HCy for 8 hours in order to define the effect on early cardiac gene expression. Another group of embryos were exposed to HCy for 24 hours at which time the effects on gene expression were determined. To analyze the effects during the looping stages, incubation was stopped after between 22 and 24 hours. After the 8-hour incubation, Li and HCy suppressed Hex and Isl1 expression in the cardiogenic crescent (FIG. 5).\nThe inventors next analyzed whether FA rescues the downregulation of Hex and Isl1. Chick embryos were exposed to Li, HCy or Wnt3A, as above, with and without 10 μg/ml of FA; the experiments were terminated after either an 8-hour or 24-hour exposure period, at which time in situ hybridizations for gene expression were performed. After 8 hours of exposure, Li, HCy and Wnt3A all suppressed Hex (FIGS. 9D, G, J) and Isl1 (FIGS. 10D, G, J) compared with the control embryonic expression patterns (FIG. 9A; FIG. 10A). […] Thus, FA supplementation suppressed the potentiation of the inhibitory Wnt signaling, allowing for normal induction of Hex and Isl1 gene expression."}, "[4]": {"settings": "30% EtOH 2.9 g/Kg twice i.p. on E6.75"}, "[5]": {"settings": "30% EtOH 3.5 g/Kg once i.p. on E6.75"}, "[6]": {"settings": "HH stage 3 +/4, HCy 50 μM, Li 50 μM, FA 10 μM, inositol 280 mM"}}}
{"compound": "CCO", "note": "[EtOH, ethanol]", "values": [{"measurement": "Hex and Isl-1 expression in the heart fields", "setting": "Hex and Isl-1 expression", "result": "suppressed"}, {"measurement": "Body Weight", "setting": "C57BL/6 mouse embryos [1]; [4]", "result": 0.37, "unit": "g"}, {"measurement": "CRL", "setting": "C57BL/6 mouse embryos [1]; [4]", "result": 12.63, "unit": "min"}, {"measurement": "Placenta Weight", "setting": "C57BL/6 mouse embryos [1]; [4]", "result": 0.10, "unit": "g"}, {"measurement": "Body Weight", "setting": "C57BL/6 mouse embryos [1]; [5]", "result": 0.35, "unit": "g"}, {"measurement": "CRL", "setting": "C57BL/6 mouse embryos [1]; [5]", "result": 11.40, "unit": "min"}, {"measurement": "Placenta Weight", "setting": "C57BL/6 mouse embryos [1]; [5]", "result": 0.09, "unit": "g"}, {"measurement": "embryos with cardiac valve anomalies", "setting": "avian embryos; 25% and 30% EtOH, stage 4", "result": 68, "unit": "%"}, {"measurement": "embryos with normal heart development", "setting": "avian embryos; 25% and 30% EtOH, stage 4, FA (10 mg/ml) concurrently, in vitro and in ovo", "result": 32, "unit": "%"}, {"measurement": "morphological defects", "setting": "avian embryos; EtOH in vitro at HH stage 4", "result": "delayed growth and severe cardiac malformations"}, {"measurement": "effects of 10% EtOH in ovo", "setting": "avian embryos; quail eggs stage 4, microinjected into airspace", "result": "no adverse effects"}, {"measurement": "teratogenic EtOH dose", "setting": "avian embryos; stage 4 avian embryos", "result": "25-30%"}, {"measurement": "DAPI", "setting": "C57BL/6 mouse embryos [2]", "result": 1.73}, {"measurement": "DVPI", "setting": "C57BL/6 mouse embryos [2]", "result": 1.21}, {"measurement": "E/A Ratio", "setting": "C57BL/6 mouse embryos [2]", "result": 0.29}, {"measurement": "HR", "setting": "C57BL/6 mouse embryos [2]", "result": 205, "unit": "bpm"}, {"measurement": "ICT %", "setting": "C57BL/6 mouse embryos [2]", "result": 10.09, "unit": "%"}, {"measurement": "IRT %", "setting": "C57BL/6 mouse embryos [2]", "result": 14.93, "unit": "%"}, {"measurement": "MPI", "setting": "C57BL/6 mouse embryos [2]", "result": 0.62}, {"measurement": "OF", "setting": "C57BL/6 mouse embryos [2]", "result": 26.37, "unit": "cm/s"}, {"measurement": "RR", "setting": "C57BL/6 mouse embryos [2]", "result": 293, "unit": "ms"}, {"measurement": "UAPI", "setting": "C57BL/6 mouse embryos [2]", "result": 1.75}, {"measurement": "abnormalities after one i.p. injection of 3.5 g/kg", "setting": "C57BL/6 mouse embryos [2]; ip", "result": "did not produce any abnormalities"}, {"measurement": "outcome after one i.p. injection of 4.5 g/kg", "setting": "C57BL/6 mouse embryos [2]; ip", "result": "cardiac abnormalities, but the pregnant mouse appeared sickly"}]}
{"compound": "O[C@H]1[C@H](O)[C@@H](O)[C@H](O)[C@@H](O)[C@H]1O", "note": "[Inositol, myo-inositol]", "values": [{"measurement": "% Normal Hearts", "setting": "chick embryos; [6]", "result": 60, "unit": "%"}, {"measurement": "Abnormal (number of embryos)", "setting": "chick embryos; [6]", "result": 2}, {"measurement": "Normal (number of embryos)", "setting": "chick embryos; [6]", "result": 3}, {"measurement": "% Normal Hearts", "setting": "chick embryos; HH stage 3 +/4, HCy 50 μM, Li 50 μM, FA 10 μM, inositol 280 mM, listed as Inositol only", "result": 60, "unit": "%"}, {"measurement": "expression of NMHC-IIB and FN", "setting": "HTR-8/SVneo cells", "result": "enhanced"}]}
{"compound": "Wnt3A", "values": [{"measurement": "embryos with normal hearts / normal heart development", "setting": "chick embryos; Wnt3A exposure at HH stages 3+/4, Wnt 2 ng, FA 10 μg", "result": 18, "unit": "%"}, {"measurement": "minimal effective dose that induced cardiac anomalies", "setting": "chick embryos; in vivo", "result": 2, "unit": "ng/mL"}, {"measurement": "minimal effective dose that induced neural anomalies", "setting": "chick embryos; in vivo", "result": 10, "unit": "ng/mL"}, {"measurement": "Hex and Isl1 expression in the cardiogenic crescent", "setting": "[3]", "result": "suppressed"}]}
